Measurements reported in patent US7569578B2, “Heterocyclic anti-migraine agents” (Bristol-Meyers Squibb Company, priority 2003, dated 2009).

Target: T1, Human CGRP1 Receptor (Homo sapiens, UniProt O60894+Q16602)
T1 construct: endogenous in cells; host or cells: SK-N-MC cells (membrane homogenate)
Assay: CGRP Binding Assay ([125I]-CGRP radioligand displacement, SK-N-MC membrane homogenate)
Conditions: [125I]-CGRP displacement, SK-N-MC homogenate, room temperature 2 h; read-out: Human CGRP1 Receptor IC50
Description: Tissue Culture. SK-N-MC cells were grown at 37° C. in 5% CO2 as a monolayer in medium consisting of MEM with Earle's salts and L-glutamine (Gibco) supplemented with 10% fetal bovine serum (Gibco).
Cell Pellets. […] The cells were transferred from plates to polypropylene tubes (16×100 mm) and homogenized using a polytron. Homogenates were centrifuged at 32,000×g for 30 min. The pellets were resuspended in cold hypotonic lysis buffer with 0.1% mammalian protease inhibitor cocktail (Sigma) and assayed for protein concentration. The SK-N-MC homogenate was then aliquoted and stored at −80° C. until needed.
Radioligand Binding Assay. The compounds of invention were solubilized and carried through serial dilutions using 100% DMSO. Aliquots from the compound serial dilutions were further diluted 25 fold into assay buffer (50 mM Tris-Cl pH 7.5, 5 mM MgCl2, 0.005% Triton X-100) and transferred (volume 50 μl) into 96 well assay plates. […] SK-N-MC pellets were thawed, diluted in assay buffer with fresh 0.1% mammalian protease inhibitor cocktail (Sigma), and homogenized again. SK-N-MC homogenate (5 μg/well) was added in a volume of 100 μl. The assay plates were then incubated at room temperature for 2 h. Assays were stopped by addition of excess cold wash buffer (20 mM Tris-Cl pH 7.5, 0.1% BSA) immediately followed by filtration over glass fiber filters (Whatman GF/B) previously soaked in 0.5% PEI. Non-specific binding was defined with 1 μM beta-CGRP. Protein bound radioactivity was determined using a gamma or scintillation counter.

T1 sequence (Q16602 23-461): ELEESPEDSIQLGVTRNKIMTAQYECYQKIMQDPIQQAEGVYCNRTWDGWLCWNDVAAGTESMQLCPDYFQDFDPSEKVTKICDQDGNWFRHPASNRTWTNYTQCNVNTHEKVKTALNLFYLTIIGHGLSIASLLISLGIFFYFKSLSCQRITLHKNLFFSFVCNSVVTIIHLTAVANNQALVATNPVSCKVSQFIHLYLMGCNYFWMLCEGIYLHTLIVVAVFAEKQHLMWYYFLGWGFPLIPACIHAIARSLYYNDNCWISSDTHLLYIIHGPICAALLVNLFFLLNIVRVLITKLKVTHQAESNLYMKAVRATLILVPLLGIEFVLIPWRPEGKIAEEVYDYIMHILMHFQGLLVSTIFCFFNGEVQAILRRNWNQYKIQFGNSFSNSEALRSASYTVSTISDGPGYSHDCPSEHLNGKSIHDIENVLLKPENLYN
T1 sequence (O60894 27-148): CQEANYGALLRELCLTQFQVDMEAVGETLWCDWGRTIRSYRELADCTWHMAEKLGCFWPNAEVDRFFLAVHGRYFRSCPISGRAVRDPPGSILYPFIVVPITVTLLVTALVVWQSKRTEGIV

Row | Compound | IC50 [µM]
1 | Cc1cc(CC(NC(=O)N2CCC(N3Cc4ccccc4NC3=O)CC2)c2ncc(Br)n2Cc2cc(F)cc(F)c2)cc2c[nH]nc12 (racemic) [Example 88, (±)-N-(1-(1-(3,5-Difluorobenzyl)-5-bromo-1H-imidazol-2-yl)-2-(7-methyl-2H-indazol-5-yl)ethyl)-4-(2-oxo-1,2-dihydroquinazolin-3(4H)-yl)piperidine-1-carboxamide] | < 0.01
2 | Cc1cc(CC(OC(=O)N2CCC(N3Cc4cccc(F)c4NC3=O)CC2)c2cc3ccccc3cn2)cc2cn[nH]c12 (stereo not drawn) [Example 52, 1-(Isoquinolin-3-yl)-2-(7-methyl-1H-indazol-5-yl)ethyl 4-(8-fluoro-2-oxo-1,2-dihydroquinazolin-3(4H)-yl)piperidine-1-carboxylate] | < 0.01
3 | CCc1ccnc(C(CC(=O)N2CCC(N3Cc4ccccc4NC3=O)CC2)Cc2cc(C)c3[nH]ncc3c2)c1 (racemic) [Example 22, (±)-3-(1-(3-(4-Ethylpyridin-2-yl)-4-(7-methyl-1H-indazol-5-yl)butanoyl)piperidin-4-yl)-3,4-dihydroquinazolin-2(1H)-one] | 0.01 to 0.1
4 | Cc1cc(CC(CC(=O)N2CCC3(CC2)OC(=O)Nc2ccccc23)c2nc(Cc3ccccc3)no2)cc2cn[nH]c12 (racemic) [Example 8, (±)-3-{1-[3-(3-Benzyl-[1,2,4]oxadiazol-5-yl)-4-(7-methyl-1H-indazol-5-yl)-butyryl]-4,4′-piperidinyl}-1′,2′-dihydro-2′-oxospiro-[4H-3′,1-benzoxazine] | 0.01 to 0.1
5 | CCn1c(C(CC(=O)N2CCC(N3Cc4ccccc4NC3=O)CC2)CC2=CC3C=NNC3C(C)=C2)nc2ccccc21 (stereo not drawn) [Example 99, 3-(1-(3-(1-Ethyl-1H-benzo [d]imidazol-2-yl)-4-(7-methyl-3a,7a-dihydro-1H-indazol-5-yl)butanoyl)piperidin-4-yl)-3,4-dihydroquinazolin-2(1H)-one] | < 0.01
6 | Cc1cc(CC(NC(=O)N2CCC(N3Cc4cccc(F)c4NC3=O)CC2)c2ccc3ccccc3n2)cc2cn[nH]c12 (racemic) [Example 35, (±)-4-(8-Fluoro-2-oxo-1,2-dihydroquinazolin-3(4H)-yl)-N-(2-(7-methyl-1H-indazol-5-yl)-1-(quinolin-2-yl)ethyl)piperidine-1-carboxamide] | < 0.01
7 | Cc1cc(CC(CC(=O)N2CCC(N3Cc4ccccc4NC3=O)CC2)c2ccc(CN3CCCCC3)cn2)cc2cn[nH]c12 (racemic) [Example 29, (±)-3-(1-(4-(7-Methyl-1H-indazol-5-yl)-3-(5-(piperidin-1-ylmethyl)pyridin-2-yl)butanoyl)piperidin-4-yl)-3,4-dihydroquinazolin-2(1H)-one] | < 0.01
8 | Cc1cc(CC(CC(=O)N2CCC(N3Cc4ccccc4NC3=O)CC2)c2nc(CN(C)C)no2)cc2cn[nH]c12 (racemic) [Example 7, (±)-3-{1-[3-(3-Dimethylaminomethyl-[1,2,4]oxadiazol-5-yl)-4-(7-methyl-1H-indazol-5-yl)-butyryl]-piperidin-4-yl}-3,4-dihydro-1H-quinazolin-2-one] | 0.01 to 0.1
9 | Cc1cc(CC(OC(=O)N2CCC(N3Cc4cccc(F)c4NC3=O)CC2)c2ccco2)cc2cn[nH]c12 (stereo not drawn) [Example 60, 1-(Furan-2-yl)-2-(7-methyl-1H-indazol-5-yl)ethyl 4-(8-fluoro-2-oxo-1,2-dihydroquinazolin-3(4H)-yl)piperidine-1-carboxylate] | 0.01 to 0.1
10 | Cc1cc(CC(OC(=O)N2CCC(N3Cc4cccc(F)c4NC3=O)CC2)c2cccnc2)cc2cn[nH]c12 (stereo not drawn) [Example 59, 2-(7-Methyl-1H-indazol-5-yl)-1-(pyridin-3-yl)ethyl 4-(8-fluoro-2-oxo-1,2-dihydroquinazolin-3(4H)-yl)piperidine-1-carboxylate] | 0.1 to 1
11 | Cc1cc(CC(NC(=O)N2CCC(N3Cc4ccccc4NC3=O)CC2)c2nc(CN(C)C)no2)cc2cn[nH]c12 (racemic) [Example 13, (±)-4-(2-Oxo-1,4-dihydro-2H-quinazolin-3-yl)-piperidine-1-carboxylic acid [1-(3-dimethylaminomethyl-[1,2,4]oxadiazol-5-yl)-2-(7-methyl-1H-indazol-5-yl)-ethyl]-amide] | 0.1 to 1
12 | Cc1cc(CC(NC(=O)N2CCC(N3Cc4ccccc4NC3=O)CC2)c2ccccn2)cc2cn[nH]c12 (racemic) [Example 31, (±)-N-(2-(7-Methyl-1H-indazol-5-yl)-1-(pyridin-2-yl)ethyl)-4-(2-oxo-1,2-dihydroquinazolin-3(4H)-yl)piperidine-1-carboxamide] | < 0.01
13 | CCc1cc(CC(NC(=O)N2CCC(N3Cc4ccccc4NC3=O)CC2)c2nnn(CC(=O)c3ccccc3)n2)cc2c(C)n[nH]c12 (racemic) [Example 20, (±)-4-(2-Oxo-1,4-dihydro-2H-quinazolin-3-yl)-piperidine-1-carboxylic acid [2-(7-ethyl-3-methyl-1H-indazol-5-yl)-1-(2-oxo-2Phenethyl-2H-tetrazol-5-yl)-ethyl]-amide] | 0.01 to 0.1
14 | Cc1cc(CC(NC(=O)N2CCC(c3cc4ccccc4[nH]c3=O)CC2)c2cc3ccccc3cn2)cc2cn[nH]c12 (stereo not drawn) [Example 36, N-(1-(Isoquinolin-3-yl)-2-(7-methyl-1H-indazol-5-yl)ethyl)-4-(2-oxo-1,2-dihydroquinolin-3-yl)piperidine-1-carboxamide] | < 0.01
15 | Cc1cc(CC(OC(=O)N2CCC(N3Cc4cccc(F)c4NC3=O)CC2)c2cccc(CC(C)C)n2)cc2cn[nH]c12 (racemic) [Example 43, (±)-1-(6-Isobutylpyridin-2-yl)-2-(7-methyl-1H-indazol-5-yl)ethyl 4-(8-fluoro-2-oxo-1,2-dihydroquinazolin-3(4H)-yl)piperidine-1-carboxylate] | 0.01 to 0.1
16 | Cc1cc(CC(CC(=O)N2CCC(N3Cc4ccccc4NC3=O)CC2)c2nc(-c3ccccc3)no2)cc2cn[nH]c12 (racemic) [Example 4, (±)-3-{1-[4-(7-Methyl-1H-indazol-5-yl)-3-(3-phenyl-[1,2,4]oxadiazol-5-yl)-butyryl]-piperidin-4-yl}-3,4-dihydro-1H-quinazolin-2-one] | 0.01 to 0.1
17 | Cc1cc(CC(NC(=O)N2CCC(N3Cc4cccc(F)c4NC3=O)CC2)c2nnn(CC3CCNCC3)n2)cc2cn[nH]c12 (racemic) [Example 82, (±)-4-(8-Fluoro-2-oxo-1,2-dihydroquinazolin-3(4H)-yl)-N-(2-[7-methyl-1H-indazol-5-yl]-1-[2-(piperidin-4-ylmethyl)-1H-tetrazol-5-yl]ethyl)piperidin-1-carboxamide] | 0.01 to 0.1
18 | Cc1cc(C[C@@H](NC(=O)N2CCC(N3Cc4ccccc4NC3=O)CC2)c2ncc3ccccn23)cc2cn[nH]c12 [Example 85, (R)-N-(1-(H-Imidazo[1,5-a]pyridin-3-yl)-2-(7-methyl-1H-indazol-5-yl)ethyl)-4-(2-oxo-1,2-dihydroquinazolin-3(4H)-yl)piperidine-1-carboxamide] | < 0.01
19 | Cc1cc(CC(NC(=O)N2CCC(N3Cc4ccccc4NC3=O)CC2)c2cccc(Br)n2)cc2cn[nH]c12 (racemic) [Example 30, (±)-N-(1-(6-Bromopyridin-2-yl)-2-(7-methyl-1H-indazol-5-yl)ethyl)-4-(2-oxo-1,2-dihydroquinazolin-3(4H)-yl)piperidine-1-carboxamide] | < 0.01
20 | Cc1cc(CC(CC(=O)N2CCC(N3Cc4ccccc4NC3=O)CC2)c2nc(Cc3ccncc3)no2)cc2cn[nH]c12 (racemic) [Example 6, (±)-3-{1-[4-(7-Methyl-1H-indazol-5-yl)-3-(3-pyridin-4-ylmethyl-[1,2,4]oxadiazol-5-yl)-butyryl]-piperidin-4-yl}-3,4-dihydro-1H-quinazolin-2-one] | 0.01 to 0.1
21 | CCc1cc(CC(NC(=O)N2CCC(N3Cc4ccccc4NC3=O)CC2)c2nnn[nH]2)cc2c(C)n[nH]c12 (racemic) [Example 14, (±)-4-(2-Oxo-1,4-dihydro-2H-quinazolin-3-yl)-piperidine-1-carboxylic acid [2-(7-ethyl-3-methyl-1H-indazol-5-yl)-1-(1H-tetrazol-5-yl)-ethyl]-amide] | 0.1 to 1
22 | Cc1cc(CC(OC(=O)N2CCC(N3Cc4ccccc4NC3=O)CC2)c2ccccn2)cc2cn[nH]c12 (stereo not drawn) [Example 54, 2-(7-methyl-1H-indazol-5-yl)-1-(pyridin-2-yl)ethyl 4-(2-oxo-1,2-dihydroquinazolin-3(4H)-yl)piperidine-1-carboxylate] | < 0.01
23 | Cc1cc(CC(OC(=O)N2CCC(N3Cc4ccccc4NC3=O)CC2)c2cccnc2)cc2cn[nH]c12 (stereo not drawn) [Example 58, 2-(7-Methyl-1H-indazol-5-yl)-1-(pyridin-3-yl)ethyl 4-(2-oxo-1,2-dihydroquinazolin-3(4H)-yl)piperidine-1-carboxylate] | 0.1 to 1
24 | Cc1cc(C)nc(C(Cc2cc(C)c3[nH]ncc3c2)OC(=O)N2CCC(N3Cc4cccc(F)c4NC3=O)CC2)n1 (stereo not drawn) [Example 63, 1-(4,6-Dimethylpyrimidin-2-yl)-2-(7-methyl-1H-indazol-5-yl)ethyl 4-(8-fluoro-2-oxo-1,2-dihydroquinazolin-3(4H)-yl)piperidine-1-carboxylate] | 0.1 to 1
